Results reported in patent US12162840B2, “Herbicidal compositions” (SYNGENTA PARTICIPATIONS AG, priority 2018, dated 2024).

Legend:
Type in all cases: in vivo
[1] = test system: cool season plant species; experiment: B2 Post-emergence efficacy Test 2, cool season plant species; conditions: 15 days after application, 0=no damage, 100=total kill
Procedure: Seeds of a variety of test species (see Table B1) were sown in standard soil in pots. After cultivation for 12 days (post-emergence) under controlled conditions in a glasshouse (at 24/18° C. or 20/16° C., at day/night; 16 hours light; 65% humidity), the plants were sprayed with an aqueous spray solution derived from the formulation of the technical active ingredient dissolved in IF50 (see Table B2 for composition) and adjuvant (Genapol XO80) was added to the spray solution at a rate of 0.2% v/v. [table] [table] After application, the test plants were grown in a glasshouse under controlled conditions (as above) and watered twice daily. Herbicidal activity was evaluated 15 days after application on a 0-100 scale. The results, where 0=no damage to test plant and 100=total kill of test plant are shown below in Tables 6 to 9.

[2] = test system: Echinochloa crus-galli (ECHCG); experiment: B1 Post-emergence efficacy Test 1; conditions: post-emergence application, 1000 g/ha, evaluated after 13 days
Procedure: (§1) Seeds of a variety of test species are sown in standard soil in pots:—Solanum nigrum (SOLNI), Amaranthus retoflexus (AMARE), Setaria faberi (SETFA), Alopecurus myosuroides (ALOMY), Echinochloa crus-galli (ECHCG), Ipomoea hederacea (IPOHE), Lolium perenne (LOLPE). After 8 days cultivation (post-emergence) under controlled conditions in a glasshouse (at 24/16° C., day/night; 14 hours light; 65% humidity), the plants are sprayed with an aqueous spray solution derived from the formulation of the technical active ingredient in acetone/water (50:50) solution containing 0.5% Tween 20 (polyoxyethylene sorbitan monolaurate, CAS RN 9005-64-5). Compounds are applied at 1000 g/ha. The test plants are then grown in a glasshouse under controlled conditions in a glasshouse (at 24/16° C., day/night; 14 hours light; 65% humidity) and watered twice daily. After 13 days, the test is evaluated for the percentage damage caused to the plant. The biological activities are assessed on a five point scale (5=80-100%; 4=60-79%; 3=40-59%; 2=20-39%; 1=0-19%). A blank value in the table is indicative that the compound was not tested on that species.

Solanum nigrum (SOLNI) = experiment: B1 Post-emergence efficacy Test 1; conditions: post-emergence application, 1000 g/ha, evaluated after 13 days
Procedure: as §1

[3] = test system: Amaranthus retoflexus (AMARE); experiment: B1 Post-emergence efficacy Test 1; conditions: post-emergence application, 1000 g/ha, evaluated after 13 days
Procedure: as §1

Setaria faberi (SETFA) = experiment: B1 Post-emergence efficacy Test 1; conditions: post-emergence application, 1000 g/ha, evaluated after 13 days
Procedure: as §1

Lolium perenne (LOLPE) = experiment: B1 Post-emergence efficacy Test 1; conditions: post-emergence application, 1000 g/ha, evaluated after 13 days
Procedure: as §1

[4] = test system: Ipomoea hederacea (IPOHE); experiment: B1 Post-emergence efficacy Test 1; conditions: post-emergence application, 1000 g/ha, evaluated after 13 days
Procedure: as §1

Cc1nn(C)c(=O)c(-c2c(F)ccc(Cl)c2CCc2ccc(F)cc2)c1O [Compound 1.048]
50: Herbicidal activity (0-100 scale) BROTE ([1]; 125 g/Ha) | Herbicidal activity (0-100 scale) GALAP ([1]; 60 g/Ha) | Herbicidal activity (0-100 scale) KCHSC ([1]; 250 g/Ha) | Herbicidal activity (0-100 scale) TRZAW ([1]; 250 g/Ha)
20: Herbicidal activity (0-100 scale) ALOMY ([1]; 15 g/Ha) | Herbicidal activity (0-100 scale) BROTE ([1]; 60 g/Ha) | Herbicidal activity (0-100 scale) GALAP ([1]; 15 g/Ha) | Herbicidal activity (0-100 scale) KCHSC ([1]; 125 g/Ha) | Herbicidal activity (0-100 scale) LOLPE ([1]; 15 g/Ha) | Herbicidal activity (0-100 scale) TRZAW ([1]; 60 g/Ha) | Herbicidal activity (0-100 scale) TRZAW ([1]; 125 g/Ha)
80: Herbicidal activity (0-100 scale) ALOMY ([1]; 125 g/Ha) | Herbicidal activity (0-100 scale) ALOMY ([1]; 250 g/Ha) | Herbicidal activity (0-100 scale) AVEFA ([1]; 125 g/Ha) | Herbicidal activity (0-100 scale) BEAVA ([1]; 30 g/Ha) | Herbicidal activity (0-100 scale) BEAVA ([1]; 60 g/Ha) | Herbicidal activity (0-100 scale) GALAP ([1]; 500 g/Ha) | Herbicidal activity (0-100 scale) HORVW ([1]; 500 g/Ha) | Herbicidal activity (0-100 scale) KCHSC ([1]; 500 g/Ha) | Herbicidal activity (0-100 scale) POAAN ([1]; 60 g/Ha) | Herbicidal activity (0-100 scale) POAAN ([1]; 125 g/Ha) | Herbicidal activity (0-100 scale) SINAR ([1]; 30 g/Ha) | Herbicidal activity (0-100 scale) SINAR ([1]; 60 g/Ha) | Herbicidal activity (0-100 scale) TRZAW ([1]; 500 g/Ha) | Herbicidal activity (0-100 scale) VERPE ([1]; 30 g/Ha) | Herbicidal activity (0-100 scale) VERPE ([1]; 125 g/Ha)
70: Herbicidal activity (0-100 scale) ALOMY ([1]; 60 g/Ha) | Herbicidal activity (0-100 scale) BEAVA ([1]; 15 g/Ha) | Herbicidal activity (0-100 scale) BROTE ([1]; 500 g/Ha) | Herbicidal activity (0-100 scale) CHEAL ([1]; 125 g/Ha) | Herbicidal activity (0-100 scale) POLCO ([1]; 30 g/Ha)
90: Herbicidal activity (0-100 scale) ALOMY ([1]; 500 g/Ha) | Herbicidal activity (0-100 scale) AVEFA ([1]; 250 g/Ha) | Herbicidal activity (0-100 scale) AVEFA ([1]; 500 g/Ha) | Herbicidal activity (0-100 scale) BEAVA ([1]; 125 g/Ha) | Herbicidal activity (0-100 scale) BEAVA ([1]; 250 g/Ha) | Herbicidal activity (0-100 scale) BEAVA ([1]; 500 g/Ha) | Herbicidal activity (0-100 scale) BRSNN ([1]; 15 g/Ha) | Herbicidal activity (0-100 scale) BRSNN ([1]; 30 g/Ha) | Herbicidal activity (0-100 scale) BRSNN ([1]; 60 g/Ha) | Herbicidal activity (0-100 scale) BRSNN ([1]; 125 g/Ha) | Herbicidal activity (0-100 scale) BRSNN ([1]; 250 g/Ha) | Herbicidal activity (0-100 scale) BRSNN ([1]; 500 g/Ha) | Herbicidal activity (0-100 scale) CHEAL ([1]; 250 g/Ha) | Herbicidal activity (0-100 scale) LOLPE ([1]; 60 g/Ha) | Herbicidal activity (0-100 scale) LOLPE ([1]; 125 g/Ha) | Herbicidal activity (0-100 scale) LOLPE ([1]; 250 g/Ha) | Herbicidal activity (0-100 scale) LOLPE ([1]; 500 g/Ha) | Herbicidal activity (0-100 scale) POAAN ([1]; 250 g/Ha) | Herbicidal activity (0-100 scale) POAAN ([1]; 500 g/Ha) | Herbicidal activity (0-100 scale) POLCO ([1]; 60 g/Ha) | Herbicidal activity (0-100 scale) POLCO ([1]; 125 g/Ha) | Herbicidal activity (0-100 scale) POLCO ([1]; 250 g/Ha) | Herbicidal activity (0-100 scale) POLCO ([1]; 500 g/Ha) | Herbicidal activity (0-100 scale) SINAR ([1]; 125 g/Ha) | Herbicidal activity (0-100 scale) SINAR ([1]; 250 g/Ha) | Herbicidal activity (0-100 scale) SINAR ([1]; 500 g/Ha) | Herbicidal activity (0-100 scale) STEME ([1]; 15 g/Ha) | Herbicidal activity (0-100 scale) STEME ([1]; 30 g/Ha) | Herbicidal activity (0-100 scale) STEME ([1]; 60 g/Ha) | Herbicidal activity (0-100 scale) VERPE ([1]; 60 g/Ha)
30: Herbicidal activity (0-100 scale) ALOMY ([1]; 30 g/Ha) | Herbicidal activity (0-100 scale) AVEFA ([1]; 30 g/Ha) | Herbicidal activity (0-100 scale) GALAP ([1]; 30 g/Ha) | Herbicidal activity (0-100 scale) POAAN ([1]; 15 g/Ha) | Herbicidal activity (0-100 scale) POAAN ([1]; 30 g/Ha)
5 (5=80-100%): percentage damage caused to the plant, five point scale, ECHCG [2] | percentage damage caused to the plant, five point scale, SOLNI (Solanum nigrum (SOLNI)) | percentage damage caused to the plant, five point scale, AMARE [3] | percentage damage caused to the plant, five point scale, SETFA (Setaria faberi (SETFA)) | percentage damage caused to the plant, five point scale, LOLPE (Lolium perenne (LOLPE)) | percentage damage caused to the plant, five point scale, IPOHE [4]
100: Herbicidal activity (0-100 scale) CHEAL ([1]; 500 g/Ha) | Herbicidal activity (0-100 scale) STEME ([1]; 125 g/Ha) | Herbicidal activity (0-100 scale) STEME ([1]; 250 g/Ha) | Herbicidal activity (0-100 scale) STEME ([1]; 500 g/Ha) | Herbicidal activity (0-100 scale) VERPE ([1]; 250 g/Ha) | Herbicidal activity (0-100 scale) VERPE ([1]; 500 g/Ha)
40: Herbicidal activity (0-100 scale) HORVW ([1]; 125 g/Ha) | Herbicidal activity (0-100 scale) HORVW ([1]; 250 g/Ha) | Herbicidal activity (0-100 scale) LOLPE ([1]; 30 g/Ha) | Herbicidal activity (0-100 scale) SINAR ([1]; 15 g/Ha)
60: Herbicidal activity (0-100 scale) AVEFA ([1]; 60 g/Ha) | Herbicidal activity (0-100 scale) BROTE ([1]; 250 g/Ha) | Herbicidal activity (0-100 scale) GALAP ([1]; 125 g/Ha) | Herbicidal activity (0-100 scale) GALAP ([1]; 250 g/Ha) | Herbicidal activity (0-100 scale) POLCO ([1]; 15 g/Ha) | Herbicidal activity (0-100 scale) VERPE ([1]; 15 g/Ha)
10: Herbicidal activity (0-100 scale) AVEFA ([1]; 15 g/Ha) | Herbicidal activity (0-100 scale) BROTE ([1]; 30 g/Ha) | Herbicidal activity (0-100 scale) HORVW ([1]; 15 g/Ha) | Herbicidal activity (0-100 scale) HORVW ([1]; 30 g/Ha) | Herbicidal activity (0-100 scale) HORVW ([1]; 60 g/Ha) | Herbicidal activity (0-100 scale) KCHSC ([1]; 60 g/Ha) | Herbicidal activity (0-100 scale) TRZAW ([1]; 30 g/Ha)
0: Herbicidal activity (0-100 scale) BROTE ([1]; 15 g/Ha) | Herbicidal activity (0-100 scale) KCHSC ([1]; 15 g/Ha) | Herbicidal activity (0-100 scale) KCHSC ([1]; 30 g/Ha) | Herbicidal activity (0-100 scale) TRZAW ([1]; 15 g/Ha)
